Patent US20210121438A1, “METHODS FOR TREATING OR PREVENTING CONFORMATION DISEASES AND METHODS FOR DRUG SCREENING” (GARAGE BRAIN SCIENCE CO., LTD, priority 2018, published 2021)

Columns and labels:
Rb = molecular target: T1, Rb (Homo sapiens, UniProt P06400); assay: B-isox precipitation, Rb; format: binding; settings: 100 μM b-isox, lysates of 293T cells, 4° C.
T1 construct: endogenous in cells; host or cells: 293T
T1 sequence (P06400 1-928): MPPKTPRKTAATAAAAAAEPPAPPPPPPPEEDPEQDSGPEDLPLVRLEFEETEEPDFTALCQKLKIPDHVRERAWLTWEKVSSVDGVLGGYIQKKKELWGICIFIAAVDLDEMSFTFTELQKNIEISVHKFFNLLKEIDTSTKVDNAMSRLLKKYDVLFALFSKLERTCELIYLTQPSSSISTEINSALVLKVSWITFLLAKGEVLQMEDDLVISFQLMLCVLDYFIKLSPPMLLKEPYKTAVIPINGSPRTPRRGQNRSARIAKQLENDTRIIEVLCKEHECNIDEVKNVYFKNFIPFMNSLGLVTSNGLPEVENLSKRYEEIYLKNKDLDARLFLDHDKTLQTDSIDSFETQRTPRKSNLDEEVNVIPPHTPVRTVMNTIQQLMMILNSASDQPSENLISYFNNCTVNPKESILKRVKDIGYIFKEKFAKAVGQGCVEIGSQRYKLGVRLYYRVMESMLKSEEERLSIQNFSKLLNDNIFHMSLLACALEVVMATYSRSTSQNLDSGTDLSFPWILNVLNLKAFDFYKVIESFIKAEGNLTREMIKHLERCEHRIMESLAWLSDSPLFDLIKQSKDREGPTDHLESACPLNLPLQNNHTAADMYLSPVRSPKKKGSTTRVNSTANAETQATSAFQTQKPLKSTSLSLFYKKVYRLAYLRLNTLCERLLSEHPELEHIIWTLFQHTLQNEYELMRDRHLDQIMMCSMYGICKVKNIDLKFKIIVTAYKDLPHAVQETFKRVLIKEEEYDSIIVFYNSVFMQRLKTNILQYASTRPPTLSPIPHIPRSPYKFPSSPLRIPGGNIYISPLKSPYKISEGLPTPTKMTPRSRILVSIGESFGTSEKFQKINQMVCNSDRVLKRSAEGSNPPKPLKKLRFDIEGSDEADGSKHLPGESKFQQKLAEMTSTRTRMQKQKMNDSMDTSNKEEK
Procedure: (§1) B-isox Precipitation: The 293T cells were harvested and lysed with RIPA buffer. The protein concentration was adjusted to 1 to 10 mg/mL, and 10 mM biotinylated isoxazole was added to the cell lysate to a final concentration of 100 to 200 µM. The mixtures were then incubated at 4° C. for 60 min, centrifuged at 15000 rpm for 15 min at 4° C., and the supernatant was discarded. The entire reaction volumes were subjected to SDS-PAGE and western blotting.
We incubated 100 μM b-isox with cell lysates of 293T cells at 4° C. to chemically precipitate whole prion-like proteins and then analyzed the efficiency of Rb binding by western blotting to assess the prion-like or phase transition potential of Rb (FIG. 22). […] The N-terminus of Rb (aa. 10-56) stabilizes prion-like conformation (FIG. 22c). Deletion of Rb N-terminus leads to protein degradation (FIG. 22d).

SMN = molecular target: T2, SMN (Homo sapiens, UniProt Q16637); assay: B-isox precipitation, SMN; format: binding; settings: 100 μM b-isox, lysates of mes23.5 and 293T cells, 4° C.
T2 construct: endogenous in cells; host or cells: 293T (also mes23.5)
T2 sequence (Q16637 2-294): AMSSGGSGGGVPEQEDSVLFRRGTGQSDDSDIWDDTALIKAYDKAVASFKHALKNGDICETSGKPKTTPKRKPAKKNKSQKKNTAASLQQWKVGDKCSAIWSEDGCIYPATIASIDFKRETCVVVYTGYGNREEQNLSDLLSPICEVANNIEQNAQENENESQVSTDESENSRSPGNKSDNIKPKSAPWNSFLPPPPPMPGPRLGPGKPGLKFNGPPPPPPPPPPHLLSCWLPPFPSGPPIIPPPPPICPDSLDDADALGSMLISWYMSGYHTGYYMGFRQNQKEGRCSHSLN
Procedure: as §1
Biotinylated isoxazole (b-isox), a recently identified specific chemical probe, specifically recognizes the cross-β prion-like polymer and sequentially precipitates with proteins with low complexity, prion-like domains, or phase-separated domains, such as TDP-43 and Fus. We initially incubated 100 μM b-isox with cell lysates of mes23.5 and 293T cells at 4° C. to chemically precipitate whole prion-like proteins and then analyzed the efficiency of SMN binding by western blotting to assess the prion-like or phase transition potential of SMN (FIGS. 8a and b). […] H3K4me3 proteins were used as control for insoluble loading (FIG. 8c). Indeed, insoluble SMN has been reported to be important for the assembly of Cajal bodies (CBs) via the SUMO-like interacting motif (SIM-like). Thus, sumoylation is one of the cellular regulatory mechanisms that trigger nuclear SMN to form the separated phase though cross-β polymerization.

PFN1 = molecular target: T3, PFN1 (Homo sapiens, UniProt P07737); assay: B-isox precipitation, PFN1; format: binding; settings: 293T cell fractions
T3 construct: endogenous in cells; host or cells: 293T
T3 sequence (P07737 whole entry): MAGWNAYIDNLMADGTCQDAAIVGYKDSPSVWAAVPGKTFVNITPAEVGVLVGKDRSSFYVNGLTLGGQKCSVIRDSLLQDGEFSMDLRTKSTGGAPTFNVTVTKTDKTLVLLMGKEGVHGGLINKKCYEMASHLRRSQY
Procedure: as §1
Because visible SMN granules were not observed in the cytosol under normal conditions, we deduced that SMN polymers may participate in heteromeric interactions with other prion-like proteins to fulfill biological functions in the cytosol. […] Mutations in PFN1 cause co-aggregation with TDP-43 in patients with familial amyotrophic lateral sclerosis (ALS), supporting the hypothesis that PFN1 is a prion-like protein. […] Thus, we postulated that these interactions were mediated by prion-like nature. Furthermore, we incubated full-length SMN or a panel of exon deletion constructs of SMN with b-isox and then performed a western blot analysis to identify the b-isox binding site in SMN. […] The domains encoded by exons 2b and 6 have consistently been reported to self-interact. […] Based on the results of the solubility examination, variants containing exons 6-7 were not detected in the insoluble fraction, although those variants formed visible granules. […]

[1] = molecular target: T4, TDP-43 and Lam B recombinant proteins (Homo sapiens, UniProt Q13148); assay: In vitro assembly of TDP-43 and Lam B filaments (electron microscopy); format: biochemical; settings: 3 μM proteins, b-isox 100 μM, 2 hr, RT
T4 construct: Purified full-length TDP-43 and Lam B recombinant proteins (equivalent 3 μM monomer)
T4 sequence (Q13148 whole entry): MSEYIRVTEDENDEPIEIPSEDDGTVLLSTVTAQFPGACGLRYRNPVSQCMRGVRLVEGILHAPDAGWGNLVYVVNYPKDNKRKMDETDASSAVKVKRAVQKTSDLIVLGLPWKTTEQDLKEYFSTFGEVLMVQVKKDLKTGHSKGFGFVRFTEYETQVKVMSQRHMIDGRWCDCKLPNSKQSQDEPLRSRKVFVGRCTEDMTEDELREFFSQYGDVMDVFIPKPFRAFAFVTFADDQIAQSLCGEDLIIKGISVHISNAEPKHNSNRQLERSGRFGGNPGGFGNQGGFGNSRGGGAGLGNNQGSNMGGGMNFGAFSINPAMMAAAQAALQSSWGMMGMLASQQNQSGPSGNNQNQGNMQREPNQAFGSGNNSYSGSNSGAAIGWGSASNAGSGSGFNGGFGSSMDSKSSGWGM
Procedure: To investigate the de novo mechanism of heterotypic interactions of the cross-β, we incubated TDP-43 and Lam B recombinant proteins with or without b-isox for 2 hr in vitro. […] In cells, the percentage of cross-β conformers of LC protein was approximately 10˜70% by the b-isox binding analysis, e.g. 21.2% cross-β conformers of TDP-43 in Mes23.5 dopaminergic neurons (FIG. 13j). We assume that inside the cells, most of the intrinsically disordered LC domains are protected through structure folding or binding with other proteins that limits the cross-β-nucleating reactions.

SMNA7 cells = assay: Morphology (neurite-like structure) of SMNA7 cells; format: cell-based; settings: after treating with b-isox
Source text: We investigate whether baicalein can act as a pharmacological chaperone to refold misfolded SMNA7 into a functional prion-like domain, as shown in FIG. 8 (FIG. 10a). […] PFN1 is a known SMN interactor in the cytosol. We further examined whether baicalein attenuated the degradation of the SMNA7 protein. […] We found baicalein increased the length of axons from NSC34 cells expressing SMNA7 by approximately 2-fold (FIG. 10g).

For `O=C1N[C@H]2[C@H](CS[C@H]2CCCCC(=O)OCCCCCCNC(=O)c2cc(-c3cccs3)on2)N1` [b-isox, biotinylated isoxazole], the “precipitation of Rb by b-isox” value (Rb) was “precipitation of Rb”, the “precipitation of SMN by b-isox” value (SMN) was “precipitation of both SMN and sumoylated SMN” and the “precipitation of PFN1 by b-isox” value (PFN1) was “precipitated”. The “short cylindrical filaments of TDP-43 and Lam B” value [1] was “disrupted” and the “morphology of SMNA7 cells” value (SMNA7 cells) was “became round and detached”.
